Test results taken from ChEMBL document CHEMBL1201862, “PubChem BioAssay data set” (2004).
Activity calls are given as the source filed them.

What was measured:
Aminopeptidase N = target: T1, Aminopeptidase N (Plasmodium falciparum FcB1/Columbia, UniProt O96935); test: P. falciparum M1AAP inhibitors, biochemical, fluorogenic H-Leu-NHMec substrate, 1536-well (AID 1445); parameters: species or system Plasmodium falciparum 3D7, 3D7
T1 sequence (O96935 whole entry): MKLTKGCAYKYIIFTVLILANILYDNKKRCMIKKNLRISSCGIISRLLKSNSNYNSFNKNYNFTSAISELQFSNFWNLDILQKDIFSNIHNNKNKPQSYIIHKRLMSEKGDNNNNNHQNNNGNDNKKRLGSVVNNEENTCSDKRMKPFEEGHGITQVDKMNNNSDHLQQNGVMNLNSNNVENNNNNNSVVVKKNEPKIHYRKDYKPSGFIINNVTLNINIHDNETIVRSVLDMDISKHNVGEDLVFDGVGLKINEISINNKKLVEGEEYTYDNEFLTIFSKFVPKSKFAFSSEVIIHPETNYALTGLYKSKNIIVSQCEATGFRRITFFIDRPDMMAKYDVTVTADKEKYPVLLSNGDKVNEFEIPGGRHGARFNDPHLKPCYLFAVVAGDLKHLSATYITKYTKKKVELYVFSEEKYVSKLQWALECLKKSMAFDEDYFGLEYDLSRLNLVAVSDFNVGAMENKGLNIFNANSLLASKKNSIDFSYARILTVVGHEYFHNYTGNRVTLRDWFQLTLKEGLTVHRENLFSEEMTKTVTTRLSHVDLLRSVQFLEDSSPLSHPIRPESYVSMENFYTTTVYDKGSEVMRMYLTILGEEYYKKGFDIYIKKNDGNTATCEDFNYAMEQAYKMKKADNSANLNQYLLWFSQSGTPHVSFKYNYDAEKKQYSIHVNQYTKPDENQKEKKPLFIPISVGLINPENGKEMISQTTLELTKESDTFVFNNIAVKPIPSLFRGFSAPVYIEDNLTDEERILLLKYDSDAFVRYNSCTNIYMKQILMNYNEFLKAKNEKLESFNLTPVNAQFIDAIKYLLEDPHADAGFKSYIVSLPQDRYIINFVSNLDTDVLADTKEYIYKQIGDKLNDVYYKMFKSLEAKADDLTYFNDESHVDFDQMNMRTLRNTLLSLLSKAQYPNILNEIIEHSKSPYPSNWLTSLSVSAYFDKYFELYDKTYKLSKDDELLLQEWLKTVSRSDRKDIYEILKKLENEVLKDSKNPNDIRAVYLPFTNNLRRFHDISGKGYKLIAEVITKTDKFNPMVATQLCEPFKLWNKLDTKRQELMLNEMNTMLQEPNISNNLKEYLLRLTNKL

Leucine aminopeptidase = target: T2, Leucine aminopeptidase (Plasmodium falciparum 3D7, UniProt Q8IL11); test: P. falciparum M17LAP inhibitors, primary screen, biochemical, fluorogenic H-Leu-NHMec substrate, 1536-well (AID 1619); type: functional
T2 sequence (Q8IL11 whole entry): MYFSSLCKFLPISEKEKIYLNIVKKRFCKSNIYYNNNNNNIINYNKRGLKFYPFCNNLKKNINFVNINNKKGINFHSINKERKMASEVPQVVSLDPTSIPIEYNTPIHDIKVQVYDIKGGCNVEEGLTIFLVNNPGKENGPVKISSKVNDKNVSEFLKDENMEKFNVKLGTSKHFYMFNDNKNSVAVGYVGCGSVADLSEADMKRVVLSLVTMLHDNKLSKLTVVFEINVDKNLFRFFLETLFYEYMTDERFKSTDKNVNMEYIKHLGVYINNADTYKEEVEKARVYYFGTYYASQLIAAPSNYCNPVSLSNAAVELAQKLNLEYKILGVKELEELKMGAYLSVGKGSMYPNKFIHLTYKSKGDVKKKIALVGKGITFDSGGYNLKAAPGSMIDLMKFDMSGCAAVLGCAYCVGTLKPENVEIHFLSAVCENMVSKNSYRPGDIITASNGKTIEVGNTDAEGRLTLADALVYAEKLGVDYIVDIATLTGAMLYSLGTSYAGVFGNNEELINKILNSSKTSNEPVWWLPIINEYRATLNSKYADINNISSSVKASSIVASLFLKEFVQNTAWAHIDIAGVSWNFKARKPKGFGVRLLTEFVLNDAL

Streptococcus = test: Group A Streptococcus viability loss, dose response, counter-screen for streptokinase expression inhibitor project, luminescence, BacTiterGlo (AID 1915); type: functional, organism-based;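 also: potency for reduction of bacterial viability or growth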
[1] = system: Streptococcus sp. 'group A'; test: growth inhibition of control SK(-) GAS strain, dose response, counter-screen for streptokinase expression inhibitor project, luminescence, kanamycin, BacTiterGlo, confirmation (AID 1900); type: functional, organism-based
Streptokinase A = target: T3, Streptokinase A (Streptococcus pyogenes serotype M1, UniProt P10520); test: S. pyogenes streptokinase expression inhibitors, potency, dose response, plasminogen activation absorbance, OD405 (AID 1914); type: functional, Streptococcus pyogenes M1 GAS;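 also: secreted streptokinase activity via plasminogen activation per viability signal from cell pellet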
T3 sequence (P10520 whole entry): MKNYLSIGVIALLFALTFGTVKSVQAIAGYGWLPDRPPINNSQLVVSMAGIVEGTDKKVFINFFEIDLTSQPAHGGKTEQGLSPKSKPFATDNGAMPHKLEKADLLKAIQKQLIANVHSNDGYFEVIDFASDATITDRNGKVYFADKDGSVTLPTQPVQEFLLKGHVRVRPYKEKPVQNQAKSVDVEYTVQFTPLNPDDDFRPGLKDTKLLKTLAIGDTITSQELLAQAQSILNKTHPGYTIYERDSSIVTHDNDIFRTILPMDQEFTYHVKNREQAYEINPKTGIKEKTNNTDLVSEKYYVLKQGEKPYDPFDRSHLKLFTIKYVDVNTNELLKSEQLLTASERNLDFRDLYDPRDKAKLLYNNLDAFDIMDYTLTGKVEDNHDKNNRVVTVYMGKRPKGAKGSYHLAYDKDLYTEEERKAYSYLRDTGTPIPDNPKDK

Large T antigen = Large T antigen (Simian virus 40, UniProt P03070); type: functional, Betapolyomavirus macacae;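 also: Confirmatory-stage PubChem screen for compounds that inhibit SV40 T antigen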
Sequence of Large T antigen (P03070 whole entry): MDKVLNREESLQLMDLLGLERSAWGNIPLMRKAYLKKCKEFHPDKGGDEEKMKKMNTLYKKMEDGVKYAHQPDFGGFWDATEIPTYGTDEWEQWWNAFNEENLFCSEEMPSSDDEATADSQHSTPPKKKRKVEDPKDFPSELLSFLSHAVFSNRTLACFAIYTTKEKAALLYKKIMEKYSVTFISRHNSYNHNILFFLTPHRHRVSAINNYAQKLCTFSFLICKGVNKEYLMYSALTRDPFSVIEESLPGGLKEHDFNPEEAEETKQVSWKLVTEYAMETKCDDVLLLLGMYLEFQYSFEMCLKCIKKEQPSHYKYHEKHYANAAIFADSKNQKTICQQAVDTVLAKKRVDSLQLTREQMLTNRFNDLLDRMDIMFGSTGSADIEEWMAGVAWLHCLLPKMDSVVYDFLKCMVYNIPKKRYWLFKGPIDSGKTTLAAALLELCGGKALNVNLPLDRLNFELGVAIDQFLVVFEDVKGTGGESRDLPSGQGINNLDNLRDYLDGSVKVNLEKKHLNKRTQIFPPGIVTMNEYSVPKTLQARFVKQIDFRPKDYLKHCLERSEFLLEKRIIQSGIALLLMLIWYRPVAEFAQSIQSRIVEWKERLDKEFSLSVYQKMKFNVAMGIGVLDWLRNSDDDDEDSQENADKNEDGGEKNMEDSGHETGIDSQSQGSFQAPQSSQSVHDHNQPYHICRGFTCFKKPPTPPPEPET

[2] = target: Peroxisome proliferator-activated receptor gamma/Nuclear receptor coactivator 2 (Homo sapiens, UniProt P37231); type: functional;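 also: agonist potency for raising coactivator recruitment to the receptor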
Sequence of Peroxisome proliferator-activated receptor gamma/Nuclear receptor coactivator 2 (P37231 whole entry): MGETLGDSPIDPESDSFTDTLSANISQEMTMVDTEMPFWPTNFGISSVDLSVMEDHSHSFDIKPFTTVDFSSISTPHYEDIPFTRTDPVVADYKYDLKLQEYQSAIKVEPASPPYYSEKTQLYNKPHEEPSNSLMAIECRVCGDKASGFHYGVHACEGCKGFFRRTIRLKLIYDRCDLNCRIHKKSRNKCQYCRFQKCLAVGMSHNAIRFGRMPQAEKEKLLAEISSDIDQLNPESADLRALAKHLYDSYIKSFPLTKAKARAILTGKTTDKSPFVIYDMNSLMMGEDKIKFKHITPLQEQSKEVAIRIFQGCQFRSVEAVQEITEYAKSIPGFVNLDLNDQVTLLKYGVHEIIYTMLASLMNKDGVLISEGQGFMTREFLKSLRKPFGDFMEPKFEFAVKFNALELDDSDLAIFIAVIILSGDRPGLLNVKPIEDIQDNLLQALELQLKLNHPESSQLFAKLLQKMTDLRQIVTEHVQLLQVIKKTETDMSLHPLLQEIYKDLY
Sequence of Peroxisome proliferator-activated receptor gamma/Nuclear receptor coactivator 2 (Q15596 whole entry, further chain): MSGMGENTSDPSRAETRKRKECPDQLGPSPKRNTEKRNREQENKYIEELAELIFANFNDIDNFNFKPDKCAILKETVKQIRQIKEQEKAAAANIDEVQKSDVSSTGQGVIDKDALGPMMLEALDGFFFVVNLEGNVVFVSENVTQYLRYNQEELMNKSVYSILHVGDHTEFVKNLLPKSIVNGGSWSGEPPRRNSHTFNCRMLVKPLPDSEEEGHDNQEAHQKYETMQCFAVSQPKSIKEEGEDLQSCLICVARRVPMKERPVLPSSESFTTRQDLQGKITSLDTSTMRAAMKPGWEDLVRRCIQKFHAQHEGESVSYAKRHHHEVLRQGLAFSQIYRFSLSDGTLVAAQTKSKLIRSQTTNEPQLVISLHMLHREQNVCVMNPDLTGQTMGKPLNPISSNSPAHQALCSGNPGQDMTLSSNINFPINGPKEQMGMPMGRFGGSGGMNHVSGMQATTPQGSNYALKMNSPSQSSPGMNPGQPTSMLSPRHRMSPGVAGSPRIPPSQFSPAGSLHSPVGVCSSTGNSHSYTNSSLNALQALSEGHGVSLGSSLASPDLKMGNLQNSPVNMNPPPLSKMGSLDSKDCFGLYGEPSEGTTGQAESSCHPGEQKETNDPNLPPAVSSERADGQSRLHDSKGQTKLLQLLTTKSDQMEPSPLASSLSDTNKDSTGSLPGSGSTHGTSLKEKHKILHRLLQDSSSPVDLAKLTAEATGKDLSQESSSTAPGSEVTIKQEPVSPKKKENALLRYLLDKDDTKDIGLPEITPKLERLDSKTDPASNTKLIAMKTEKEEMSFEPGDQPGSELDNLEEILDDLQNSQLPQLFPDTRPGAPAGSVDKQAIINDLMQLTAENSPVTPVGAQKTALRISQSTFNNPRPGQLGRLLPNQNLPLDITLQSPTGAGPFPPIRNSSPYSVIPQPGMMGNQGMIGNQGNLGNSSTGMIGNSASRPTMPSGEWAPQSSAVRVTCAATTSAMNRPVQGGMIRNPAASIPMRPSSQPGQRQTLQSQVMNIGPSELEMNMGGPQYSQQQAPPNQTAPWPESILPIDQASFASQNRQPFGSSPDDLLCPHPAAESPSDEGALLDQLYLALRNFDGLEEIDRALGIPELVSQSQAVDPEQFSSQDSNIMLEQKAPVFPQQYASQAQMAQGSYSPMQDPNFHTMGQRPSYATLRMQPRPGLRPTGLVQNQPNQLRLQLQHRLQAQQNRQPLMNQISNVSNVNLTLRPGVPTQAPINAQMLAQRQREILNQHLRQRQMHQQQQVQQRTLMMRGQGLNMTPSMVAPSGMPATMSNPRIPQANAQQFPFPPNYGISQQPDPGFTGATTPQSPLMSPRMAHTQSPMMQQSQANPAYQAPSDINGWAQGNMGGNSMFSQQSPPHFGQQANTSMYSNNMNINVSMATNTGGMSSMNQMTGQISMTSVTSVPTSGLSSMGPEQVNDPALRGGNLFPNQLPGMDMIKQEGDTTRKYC

[3] = target: Peroxisome proliferator-activated receptor gamma/Nuclear receptor coactivator 1 (Homo sapiens, UniProt P37231); type: functional;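 also: agonist potency as compounds enhance coactivator SRC-1 recruitment to PPARgamma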
[4] = target: Peroxisome proliferator-activated receptor gamma/Nuclear receptor coactivator 3 (Homo sapiens, UniProt P37231); type: functional;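 also: agonist potency for raising coactivator recruitment to the receptor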
Sequence of Peroxisome proliferator-activated receptor gamma/Nuclear receptor coactivator 3 (P37231 whole entry): as the sequence (P37231 whole entry) above
Sequence of Peroxisome proliferator-activated receptor gamma/Nuclear receptor coactivator 3 (Q9Y6Q9 whole entry, further chain): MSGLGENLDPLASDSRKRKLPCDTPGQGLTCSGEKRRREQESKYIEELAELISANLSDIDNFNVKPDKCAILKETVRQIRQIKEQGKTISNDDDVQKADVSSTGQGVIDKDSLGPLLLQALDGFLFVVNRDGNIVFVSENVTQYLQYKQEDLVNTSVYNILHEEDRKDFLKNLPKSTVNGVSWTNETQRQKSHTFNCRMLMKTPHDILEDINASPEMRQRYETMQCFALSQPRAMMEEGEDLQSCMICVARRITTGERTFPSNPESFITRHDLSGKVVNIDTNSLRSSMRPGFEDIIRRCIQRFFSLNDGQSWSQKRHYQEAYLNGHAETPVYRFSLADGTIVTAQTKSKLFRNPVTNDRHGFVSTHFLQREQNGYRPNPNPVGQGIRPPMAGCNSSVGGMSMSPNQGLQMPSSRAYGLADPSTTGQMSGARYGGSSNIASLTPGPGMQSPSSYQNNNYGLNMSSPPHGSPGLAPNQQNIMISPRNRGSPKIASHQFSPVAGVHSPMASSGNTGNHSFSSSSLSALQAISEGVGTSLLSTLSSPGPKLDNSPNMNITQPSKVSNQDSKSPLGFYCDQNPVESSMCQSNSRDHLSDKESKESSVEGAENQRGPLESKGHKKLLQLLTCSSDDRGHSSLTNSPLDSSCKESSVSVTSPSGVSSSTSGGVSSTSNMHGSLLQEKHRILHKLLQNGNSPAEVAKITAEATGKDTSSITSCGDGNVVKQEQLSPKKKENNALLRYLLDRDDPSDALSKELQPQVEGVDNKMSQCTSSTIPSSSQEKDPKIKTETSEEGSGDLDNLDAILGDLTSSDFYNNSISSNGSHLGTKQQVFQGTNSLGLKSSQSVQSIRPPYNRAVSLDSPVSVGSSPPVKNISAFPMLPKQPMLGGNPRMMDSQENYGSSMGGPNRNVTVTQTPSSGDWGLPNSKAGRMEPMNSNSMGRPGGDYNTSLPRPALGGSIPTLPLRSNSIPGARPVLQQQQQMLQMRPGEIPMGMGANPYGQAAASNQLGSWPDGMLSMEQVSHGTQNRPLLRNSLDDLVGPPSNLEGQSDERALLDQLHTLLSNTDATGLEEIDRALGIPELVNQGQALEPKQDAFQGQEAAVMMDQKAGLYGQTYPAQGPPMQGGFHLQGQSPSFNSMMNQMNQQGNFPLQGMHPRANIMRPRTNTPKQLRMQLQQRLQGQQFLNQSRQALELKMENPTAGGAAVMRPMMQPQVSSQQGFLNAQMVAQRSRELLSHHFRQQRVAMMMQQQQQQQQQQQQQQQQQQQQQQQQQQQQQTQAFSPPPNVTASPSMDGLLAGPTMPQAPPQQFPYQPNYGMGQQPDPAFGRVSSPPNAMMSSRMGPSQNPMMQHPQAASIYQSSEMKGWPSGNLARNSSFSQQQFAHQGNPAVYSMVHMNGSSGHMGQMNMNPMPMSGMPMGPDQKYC

[5] = target: T4, Histone-lysine N-methyltransferase NSD2 (Homo sapiens, UniProt O96028); type: biochemical
T4 sequence (O96028 whole entry): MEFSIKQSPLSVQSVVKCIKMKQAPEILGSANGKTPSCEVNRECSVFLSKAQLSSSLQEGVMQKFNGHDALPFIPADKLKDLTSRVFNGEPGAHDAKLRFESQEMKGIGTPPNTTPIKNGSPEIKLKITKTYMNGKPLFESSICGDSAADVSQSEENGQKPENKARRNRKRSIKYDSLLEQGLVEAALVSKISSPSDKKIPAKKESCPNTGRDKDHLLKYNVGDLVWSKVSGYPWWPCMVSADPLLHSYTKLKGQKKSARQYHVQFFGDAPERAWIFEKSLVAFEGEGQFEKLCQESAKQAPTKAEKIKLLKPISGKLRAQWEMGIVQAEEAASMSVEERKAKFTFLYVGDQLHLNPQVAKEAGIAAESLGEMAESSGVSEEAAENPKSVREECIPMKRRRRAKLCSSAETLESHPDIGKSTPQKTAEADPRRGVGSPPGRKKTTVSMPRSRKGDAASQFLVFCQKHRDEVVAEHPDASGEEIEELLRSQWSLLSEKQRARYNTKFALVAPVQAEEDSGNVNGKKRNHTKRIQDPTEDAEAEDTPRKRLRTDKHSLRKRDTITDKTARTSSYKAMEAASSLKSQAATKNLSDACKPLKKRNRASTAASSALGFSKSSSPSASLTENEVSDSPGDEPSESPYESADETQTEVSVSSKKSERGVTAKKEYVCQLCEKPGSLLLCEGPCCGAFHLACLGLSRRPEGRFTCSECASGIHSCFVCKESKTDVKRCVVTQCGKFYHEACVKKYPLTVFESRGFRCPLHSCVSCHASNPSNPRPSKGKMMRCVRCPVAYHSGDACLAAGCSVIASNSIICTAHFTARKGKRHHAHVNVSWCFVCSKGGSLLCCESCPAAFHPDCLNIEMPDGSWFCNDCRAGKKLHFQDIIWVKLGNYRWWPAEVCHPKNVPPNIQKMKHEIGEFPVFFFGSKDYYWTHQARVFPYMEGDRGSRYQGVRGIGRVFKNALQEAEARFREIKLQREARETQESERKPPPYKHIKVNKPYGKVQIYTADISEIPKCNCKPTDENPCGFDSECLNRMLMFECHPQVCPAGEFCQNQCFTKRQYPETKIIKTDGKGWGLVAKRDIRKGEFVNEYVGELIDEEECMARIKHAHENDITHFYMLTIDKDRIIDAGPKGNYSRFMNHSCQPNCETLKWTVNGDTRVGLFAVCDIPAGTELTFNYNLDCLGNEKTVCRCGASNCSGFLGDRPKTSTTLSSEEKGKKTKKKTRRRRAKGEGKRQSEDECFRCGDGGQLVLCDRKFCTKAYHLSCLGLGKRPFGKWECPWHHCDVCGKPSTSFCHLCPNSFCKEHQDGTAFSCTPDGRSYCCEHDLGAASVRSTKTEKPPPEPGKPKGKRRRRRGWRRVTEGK

Compound | IC50 (Aminopeptidase N) | IC50 (Leucine aminopeptidase) | IC50 (Large T antigen) | also measured
CCCSc1nnc(NC(=O)c2nc(SC)ncc2Cl)s1 | 109 µM (active) | 34.2 µM (active) | – | –
Cc1csc(NC(=O)COCC(=O)O)c1-c1nc2ccccc2s1 | 17.1 µM (active) | 35.1 µM (active) | – | EC50 (Streptococcus): 22.3 µM (active); EC50 [1]: 5.48 µM (active); EC50 (Streptokinase A): > 150 µM (not active)
OC[C@H]1O[C@@H](Oc2cc(O)cc(/C=C/c3ccc(O)cc3)c2)[C@H](O)[C@@H](O)[C@@H]1O [PICEID] | – | – | 11.2 µM (active) | –
CCN(CC)CCCCN1c2ccccc2Sc2ccccc21 | – | – | 14.2 µM (active) | –
CCc1nnc(NS(=O)(=O)c2ccc(NC(=S)NC(=O)/C=C/c3cccs3)cc2)s1 | 79.4 µM (active) | 9.13 µM (active) | – | EC50 [2]: > 79.4 µM (not active); EC50 [3]: > 79.4 µM (not active); EC50 [4]: > 79.4 µM (not active)
CSC1=NSC2=NC(=O)/C(=C\c3coc4ccccc4c3=O)C(=N)N12 | – | – | 67.1 µM (active) | AC50 [5]: 11.7 µM (active)
